Cell proliferation data for one molecule are collected here from US20160146819A1, “CLASSIFICATION SYSTEM, METHODS AND KIT FOR CLASSIFYING, PREDICTING AND TREATING BREAST CANCER” (UNIVERSITY OF MIAMI, priority 2013, published 2016).

The test relates to MDA-MB-453 breast cancer cell line (HR2+/HER2+, ER-negative). Briefly: Cell proliferation assay, MDA-MB-453 cells. To be noted: MDA-MB-453 (ER-negative control); ICI 182,780 100 nM alone. It counts as cell-based, human.

Structures are written as SMILES. “Also recorded” adds a separate entry of the source.

Procedure: All cell lines were cultured according to ATCC's guidelines. BT20, HCC1187, MDAMB468 and SUM159 cells were trypsinized with 0.05% trypsin/EDTA and plated at appropriate densities (BT20: 6,000, HCC1187: 10,000, MDAMB468: 4,000 and SUM159: 1,000 cells/well) in 96 well plates in DMEM+10% FBS. The next day Calcitriol and Taxol were added at concentrations of 25 nM and 1.5 nM respectively (Day0). For ZR75B, 4000 cells/well were plated in 96 well plates in DMEM+10% FBS. […] Calcitriol and 5 nM IC1180,782 were added the next day with fresh medium (Day0). Media was refreshed every two days and cell proliferation assay was performed on day 6 for above cell lines. The T47D cells were trypsinized with phenol red free Triple Express (Invitrogen) and washed once with PBS and 10,000 cells/well were plated in phenol red free DMEM+5% charcoal stripped FBS (CSFBS) in 96 well plates and cultured for 3 days. On the fourth day, 10 nM 17 beta estradiol (E2) was added into all the wells except non-drug treatment group, in addition to 10 nM IC1180,782, 10 nM R1881 and 50 nM Calcitriol in different groups with fresh phenol red free DMEM+5% CSFBS (Day0). […] All the proliferation assays were carried out using cell titer blue reagent (Promega) and fluorescence was measured using Bio-Tek spectrophotometer at 530/25 nm (excitation) and 590/35 nm (emission). […]

In the case of `C[C@]12CC[C@@H]3c4ccc(O)cc4C[C@@H](CCCCCCCCC[S+]([O-])CCCC(F)(F)C(F)(F)F)[C@H]3[C@@H]1CC[C@@H]2O` (stereo partly shown) [ICI 182,780], the cell proliferation entry is reported as “no inhibition was observed; also recorded: no inhibition of cell proliferation”.
